From patent publication US10092500B2, “Oral care compositions” (BASF SE, priority 2014, dated 2018)

Assays:
[1] = tested on: Multispecies saliva derived Biofilm; assay: Substantivity: multispecies saliva derived biofilm growth on pre-treated, rinsed hydroxyapatite surfaces; type: cell-based, human saliva; conditions: 24 hr on pre-treated hydroxyapatite
Experimental: The peg lids are transferred to a clear 96 well plate containing 200 μl of the designated treatments below in Jordan's with 5% sucrose. This peg/plate assembly is shaken for 5 mins and then incubated for 25 mins aerobically at 37 C. After 30 mins of treatment the two pegs is transferred to a 96 well plate containing 200 μl of water and it is rinsed for 10 min at 500 rpm. […] After incubation the peg lids are transferred to a rinse plate containing 200 μl of water for 5 minutes and then transferred to white 96 well plate containing 200 μl Bac-titer-Glo, this is shaken for 5 minutes and read for luminescence.

[2] = tested on: Streptococcus mutans Biofilm; assay: Substantivity: S. mutans biofilm growth on pre-treated, rinsed hydroxyapatite surfaces; type: cell-based, S. mutans (ATCC#25175); conditions: 24 hr on pre-treated hydroxyapatite
Experimental: Method to evaluate the substantivity of polymers to hydroxy apatite surfaces and the effects these polymers have on the growth of Streptococcus mutans and Saliva derived biofilms: S. mutans (ATCC#25175) is inoculated into 10 mL BHI and incubated statically at 37° C. overnight. […] Hydroxy apatite coated peg lids are pellicle treated with sterile artificial saliva 200 μl/per well of a 96 well clear plate for 30 minutes at 37° C. aerobically. The peg lids are transferred to a clear 96 well plate containing 200 μl of the designated treatments below in Jordan's with 5% sucrose. […] After 30 mins of treatment the two pegs is transferred to a 96 well plate containing 200 μl of water and it is rinsed for 10 min at 500 rpm. […] After incubation the peg lids are transferred to a rinse plate containing 200 μl of water for 5 minutes and then transferred to white 96 well plate containing 200 μl Bac-titer-Glo, this is shaken for 5 minutes and read for luminescence.

S. mutans (ATCC#25175) = assay: Inhibition of bacterial acid production (Bromo Cresol Purple broth, OD 588/427); type: cell-based; conditions: for Inhibition of bacterial acid production, in words: change of OD 588 / OD 427 (pH indicator)
Experimental: Method to observe the acid production of S. mutans in a medium containing a pH indicator and glucose. Observe how xylitol and the example polymers affect acid production: A culture of S. mutans (ATCC#25175) is grown statically overnight in 10 mL liquid broth (BHI) at 37° C. […] The no treatment control has 20 μl water added. To each experimental well 180 of the inoculated BCP broth is added. To the no inoculum control 20 μl water and 20 μl filter sterilized overnight culture broth are added. […] Both wavelengths are measured every hour for several hours but before evaporation became an issue. The plates are shaken for 10 seconds before reading.

48 hour saliva biofilms = assay: Disruption of established 48 hour saliva biofilms; type: cell-based, pooled human saliva; conditions: treatment for 5 minutes; Active = 1000 ppm e-polylysine, Chelate = 0.1% Trilon Ca, Polymer = 1%; negative = increase over control
Experimental: Method to screen combinations of actives, example polymers and chelates to identify potential synergies for biofilm disruption: Polystyrene pegs are pellicle treated with fresh pooled human saliva for 30 minutes at 37° C. aerobically. […] The pegs are added to the growth media and incubated anaerobically 37° C. At 24 hr. the pegs are removed and transferred to a fresh plate containing 200 μl of sterile BHI. And incubated anaerobically for another 24 hr at 37° C. […] Following a 5 minute rinse at room temperature, the pegs are transferred to a treatment plate containing combinations of actives, chelate and polymers. This is followed a 5 minute treatment (shaking at 500 rpm). The treated pegs are transferred to a white 96 well plate containing 200 μl Bac-titer-Glo reagent—this is incubated at room temperature for 5 minutes (shaking) and read on a plate reader for luminescence.

[3] = tested on: Streptococcus mutans biofilm; assay: Prevention of S. mutans biofilm development on hydroxy apatite pegs (Bac-titer-Glo luminescence); type: cell-based; conditions: Controls column; 2% xylitol; 24 hr growth; negative = increase over control
Experimental: To evaluate the multispecies saliva and S. mutans biofilm preventing activity of polymers and control combinations of condensants S. mutans 25175 is inoculated into 10 mL BHI and incubated statically at 37° C. overnight. […] Hydroxy apatite coated peg lids are pellicle treated with sterile artificial saliva 200 μl/per well of a 96 well clear plate for 30 minutes at 37° C. aerobic. […] Test solutions are added to a desired final concentration and water is added to bring the final volume to 200 μl.

[4] = tested on: multispecies saliva biofilm; assay: Prevention of multispecies saliva biofilm development on hydroxy apatite pegs (Bac-titer-Glo luminescence); type: cell-based, pooled human saliva; conditions: Controls column; 2% xylitol; 24 hr growth
Experimental: To evaluate the multispecies saliva and S. mutans biofilm preventing activity of polymers and control combinations of condensants Hydroxy apatite (HA) coated surfaces of a 96 peg lid (Biosurface Technologies, Bozeman, Mont.) are pellicle treated with pooled human saliva 200 μl/per well of a 96 well clear plate for 30 minutes at 37° C. aerobically. Into each well of the growth plate, clear 96 well plate, 160 μl inoculated Brain Heart Infusion (BHI) broth is added. Test solutions are added to a desired final concentration and water is added to bring the final volume to 200 μl.

N=C(N)NCCC[C@H](N)C(=O)O [Arginine, L-arginine]
% decrease in biofilm as compared to growth control (negative indicates increased biofilm) ([1]; % treatment 0.070%): −28%
% decrease in biofilm as compared to growth control (negative indicates increased biofilm) ([1]; % treatment 0.140%): −20%
% decrease in biofilm as compared to growth control (negative indicates increased biofilm) ([1]; % treatment 0.280%): −24%
% decrease in biofilm as compared to growth control (negative indicates increased biofilm) ([1]; % treatment 0.560%): −22%
% decrease in biofilm as compared to growth control (negative indicates increased biofilm) ([1]; % treatment 1.120%): 49%
% decrease in biofilm as compared to growth control (negative indicates increased biofilm) ([2]; % treatment 0.070%): −40%
% decrease in biofilm as compared to growth control (negative indicates increased biofilm) ([2]; % treatment 0.140%): −18%
% decrease in biofilm as compared to growth control (negative indicates increased biofilm) ([2]; % treatment 0.280%): −59%
% decrease in biofilm as compared to growth control (negative indicates increased biofilm) ([2]; % treatment 0.560%): −53%
% decrease in biofilm as compared to growth control (negative indicates increased biofilm) ([2]; % treatment 1.120%): −29%
Mean Delta OD588 (stdev) (S. mutans (ATCC#25175); 1% treatment, pH 6.3): 1.054 (0.13)
Inhibition of bacterial acid production, in words (S. mutans (ATCC#25175)): no acid inhibiting effects

CCCCCCCCCCCCCCCC[n+]1ccccc1 [Cetylpyridinium chloride]
% decrease in biofilm as compared to growth control (negative indicates increased biofilm) ([1]; % treatment 0.070%): 98%
% decrease in biofilm as compared to growth control (negative indicates increased biofilm) ([2]; % treatment 0.070%): 100%

O=C(O)CN(CCN(CC(=O)O)CC(=O)O)CC(=O)O [EDTA, ethylenediaminetetraacetic acid]
Mean Delta OD588 (stdev) (S. mutans (ATCC#25175); 1% treatment, pH 7.0): 0.283 (0.086)
Inhibition of bacterial acid production, in words (S. mutans (ATCC#25175)): no or little change demonstrating acid inhibiting effects

O=C([O-])CN(CCN(CC(=O)[O-])CC(=O)[O-])CC(=O)[O-].[Ca+2].[Na+].[Na+] [Trilon Ca, Ca EDTA]
Disruption of 48 hour saliva biofilms, reduction from the No Treatment control (48 hour saliva biofilms): −10%

OC[C@@H](O)[C@H](O)[C@@H](O)CO [Xylitol, xylitol]
Prevention of Streptococcus mutans biofilm development, reduction from the untreated control [3]: −1%
Prevention of multispecies saliva biofilm development, reduction from the untreated control [4]: 17%
% decrease in biofilm as compared to growth control (negative indicates increased biofilm) ([1]; % treatment 1.120%): 14%
% decrease in biofilm as compared to growth control (negative indicates increased biofilm) ([1]; % treatment 2.000%): 12%
% decrease in biofilm as compared to growth control (negative indicates increased biofilm) ([2]; % treatment 1.120%): −11%
% decrease in biofilm as compared to growth control (negative indicates increased biofilm) ([2]; % treatment 2.000%): −15%
Mean Delta OD588 (stdev) (S. mutans (ATCC#25175); 0.1% treatment): 0.993 (0.099)
Mean Delta OD588 (stdev) (S. mutans (ATCC#25175); 0.5% treatment): 0.841 (0.119)
Mean Delta OD588 (stdev) (S. mutans (ATCC#25175); 1% treatment): 0.759 (0.081)
Mean Delta OD588 (stdev) (S. mutans (ATCC#25175); 2% treatment): 0.734 (0.131)
Inhibition of bacterial acid production, in words (S. mutans (ATCC#25175)): acid inhibition at all concentrations tested

O=C(O)CC(O)(CC(=O)O)C(=O)O [citric acid]
Mean Delta OD588 (stdev) (S. mutans (ATCC#25175); 1% treatment, pH 7.0): 0.196 (0.029)
Inhibition of bacterial acid production, in words (S. mutans (ATCC#25175)): no or little change demonstrating acid inhibiting effects

O=C(O)CCC(=O)O [succinic acid]
Mean Delta OD588 (stdev) (S. mutans (ATCC#25175); 1% treatment, pH 7.4): 0.323 (0.107)
Inhibition of bacterial acid production, in words (S. mutans (ATCC#25175)): no or little change demonstrating acid inhibiting effects
